Source: patent US20180193361A1, “GUT ANTI-INFLAMMATORY AGENTS FOR REGULATION OF HIGH BLOOD GLUCOSE LEVELS” (UNIVERSITY HEALTH NETWORK, priority 2015, published 2018)

Legend:
gut epithelial barrier = conditions: models of IBD (Di Paolo et al., 1996; Liu et al., 2009); cited from earlier work
[1] = tablet; the remaining has local effects in the colon; cited from earlier work
MODE-K intestinal cells = test: ZO-1 expression in MODE-K cells treated with IFNγ; assay type: cell-based, murine; conditions: recombinant mouse IFNγ 5 or 10 ng/mL, 24 hours
Description: To measure the effect of IFNγ on tight-junction gene expression, we treated MODE-K cells with recombinant mouse IFNγ (Biolegend). We purified bulk dendritic cells and T cells from murine small bowels and spleens using a negative selection DC or T cell isolation kit (Stem Cell Technologies). We plated T cells at 5×10^5 cells/well with plate-bound anti-CD3/CD28 (1 μg/ml, Biolegend). […] We collected supernatants for cytokine measurements after 72 hour incubation. […] After 24 hours, we washed the cells with PBS and co-cultured them (1×10^4 cells/well) with OVA323-339 peptide and OT-II splenic or small bowel T cells (5×10^4 cells/well) for 48 hours. Supernatants were collected at 48 hours for cytokine measurement.
The murine intestinal epithelial cell line derived from C3H/He mice. […]
We extracted total RNA from isolated or cultured cells using a RNeasy Mini Kit (Qiagen), and for subcutaneous adipose tissue (SAT) and VAT we used a RNeasy Lipid Extraction kit (Qiagen). […] We assessed expression of adipocyte P2 (aP2), CCAAT/enhancer-binding protein-α (CEBPα), Peroxisome proliferator-activated receptor-γ (PPARγ), and sterol regulatory element-binding protein (SREBP) cDNA. […] We calculated relative fold changes in gene expression normalized to 18s or GAPDH by the ΔΔCT method using the equation 2-ΔΔCT. […]

For `O=C(O)CCNC(=O)c1ccc(/N=N/c2ccc(O)c(C(=O)O)c2)cc1` [Balsalazide], the “intactness of the gut epithelial barrier” value (gut epithelial barrier) is given as “beneficial effects”.

For `O=C(O)c1cc(/N=N/c2ccc(S(=O)(=O)Nc3ccccn3)cc2)ccc1O` [Sulfasalazine], the “absorbed in small bowel” value [1] is given as “approximately 20%”.

B1: IFNγ: recombinant mouse IFNγ (Biolegend) (protein, UniProt P01580 23-155, looked up)
Interferon gamma: HGTVIESLESLNNYFNSSGIDVEEKSLFLDIWRNWQKDGDMKILQSQIISFYLRLFEVLKDNQAISNNISVIESHLITTFFSNSKAKKDAFMSIAKFEVNNPQVQRQAFNELIRVVHQLLPESSLRKRKRSRC
For B1, the “ZO-1 tight junction gene expression” value (MODE-K intestinal cells) was “reduce”.
